According to US4962113A, “Pyridinium derivatives, their production and use” (Takeda Chemical Industries, Ltd, priority 1987, dated 1990):
Like-named read-outs stand apart in the source and are kept apart here.

Tests used:
[1] = system: platelet aggregation (PAF); experiment: Inhibitory action on PAF-induced rabbit platelet aggregation; type: cell-based; conditions: Oryctolagus cuniculus, read-out: inhibitory percentage (platelet aggregation)
How it was run: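 Male rabbit citrated PRP, adjusted with PPP to about 500,000 platelets/μl, was stirred 2 min at 37 °C, then with test sample for 2 min before PAF addition. Aggregation was followed by aggregometry as maximum percent light transmission.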

[2] = system: PAF-induced hypotension; experiment: Inhibitory action on PAF-induced hypotension in rats; type: in vivo, rat (Sprague-Dawley); conditions: Rattus norvegicus, read-out: Inhibitory Rate (Lowering of Blood Pressure); for inhibition in vivo at 0.01 mg/kg / inhibition in vivo at 0.03 mg/kg / inhibition in vivo at 0.1 mg/kg: iv; for inhibition in vivo at 1 mg/kg / inhibition in vivo at 3 mg/kg / inhibition in vivo at 10 mg/kg: oral
How it was run: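 Male Sprague-Dawley rats of about 250 g had cannulas placed in the femoral artery, for blood pressure recording via a pressure transducer, and in the femoral vein, for drug dosing. The hypotensive response to intravenous PAF (1 μg/kg) was measured first. Test samples were then given intravenously or orally, and PAF was given again. Percent inhibition compares the PAF-induced pressure drop (Δ mmHg) after treatment with the drop before treatment.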

[3] = system: Reversed Passive Arthus reaction; experiment: Reversed Passive Arthus reaction; type: in vivo, rat (Sprague-Dawley); conditions: oral, 6.25 mg/kg, one hour before antigen
Procedure: Under ether anesthesia, the hair of the back of Sprague-Dawley male rats (7-week old, about 250 g body weight) was cut, and 0.5 ml of a 5% solution of gum arabia of a test compound relative to 100 g of the body weight of the animals was orally administered (one hour before injection of antigen). An antigen, egg albumin dissolved in physiological saline (5 mg/kg) was administered through the tail vein. Immediately, 0.1 ml each of a rabbit anti-egg albumin serum (containing 6 mg protein antibody/ml) was administered intracutaneously at one spot each of left- and right-hand sides of the back of rats. Three hours later, 1 ml of physiological saline containing 1% of Evans blue was given intravenously, and 30 minutes later, the skin of the animals was excised, and the area (mm^2) of blue spots was measured. The results were compared with those of the control group, and the inhibitory ratio was determined.

Structure (SMILES): CCC[n+]1cc(Br)cc(C(=O)N(CCOC(=O)NCCOC(=O)Nc2cccc3ccccc23)c2ccccc2)c1 [Production Example 10, 5-bromo-3-[N-[2-[2-(1-naphthylcarbamoyloxy)ethyl]carbamoyloxy]ethyl-N-phenyl]carbamoyl-1-propylpyridinium chloride]
- inhibition at 3 µM ([1]; 3 × 10^-6 M): 100%
- inhibition at 0.3 µM ([1]; 3 × 10^-7 M): 91%
- inhibition in vivo at 0.01 mg/kg ([2]; 1 hr.): 65%
- inhibition in vivo at 0.01 mg/kg ([2]; 2 hr.): 60%
- inhibition in vivo at 0.01 mg/kg ([2]; 4 hr.): 53%
- inhibition in vivo at 0.01 mg/kg ([2]; 6 hr.): 47%
- inhibition in vivo at 0.01 mg/kg ([2]; 8 hr.): 36%
- inhibition in vivo at 0.03 mg/kg ([2]; 1 hr.): 97%
- inhibition in vivo at 0.03 mg/kg ([2]; 2 hr.): 84%
- inhibition in vivo at 0.03 mg/kg ([2]; 4 hr.): 65%
- inhibition in vivo at 0.03 mg/kg ([2]; 6 hr.): 55%
- inhibition in vivo at 0.03 mg/kg ([2]; 8 hr.): 47%
- inhibition in vivo at 0.1 mg/kg ([2]; 1 hr.): 100%
- inhibition in vivo at 0.1 mg/kg ([2]; 2 hr.): 94%
- inhibition in vivo at 0.1 mg/kg ([2]; 4 hr.): 89%
- inhibition in vivo at 0.1 mg/kg ([2]; 6 hr.): 81%
- inhibition in vivo at 0.1 mg/kg ([2]; 8 hr.): 76%
- inhibition in vivo at 0.01 mg/kg ([2]; 5 min, i.v., 5 min.): 79%
- inhibition in vivo at 0.03 mg/kg ([2]; 5 min, i.v., 5 min.): 100%
- inhibition in vivo at 0.1 mg/kg ([2]; 5 min, i.v., 5 min.): 100%
- inhibition in vivo at 1 mg/kg ([2]; 1 hr.): 33%
- inhibition in vivo at 1 mg/kg ([2]; 2 hr.): 51%
- inhibition in vivo at 1 mg/kg ([2]; 4 hr.): 56%
- inhibition in vivo at 1 mg/kg ([2]; 6 hr.): 59%
- inhibition in vivo at 1 mg/kg ([2]; 8 hr.): 47%
- inhibition in vivo at 3 mg/kg ([2]; 1 hr.): 79%
- inhibition in vivo at 3 mg/kg ([2]; 2 hr.): 83%
- inhibition in vivo at 3 mg/kg ([2]; 4 hr.): 87%
- inhibition in vivo at 3 mg/kg ([2]; 6 hr.): 83%
- inhibition in vivo at 3 mg/kg ([2]; 8 hr.): 81%
- inhibition in vivo at 10 mg/kg ([2]; 1 hr.): 96%
- inhibition in vivo at 10 mg/kg ([2]; 2 hr.): 96%
- inhibition in vivo at 10 mg/kg ([2]; 4 hr.): 96%
- inhibition in vivo at 10 mg/kg ([2]; 6 hr.): 93%
- inhibition in vivo at 10 mg/kg ([2]; 8 hr.): 90%
- preventive ratio [3]: 57%
